The text below walks through data of patent US11011273B2, “Pathway analysis for identification of diagnostic tests” (Nantomics, LLC, priority 2013, dated 2021).

Holding throughout (assay type): cell-based
In assay [1] the test system is set of cell lines (MV411, TT, AN3CA, K562, PC3, HCT116, ASPC1, MDAMB231, TF1, NCIH23, MIAPACA2, HS766T, CAPAN2, A549, HT29, U937, BXPC3, CAPAN1, SU8686). The assay can be described thus: Treatment effectiveness (GI50) of NANT3456 on a set of cell lines. The following applies: median over all cell lines of FIG. 2; dotted line 220. From the text: (§1) There are many ways to derive and measure treatment effectiveness data 136 for a particular treatment. For example, effectiveness data can be derived by administering the evaluated treatment to each and every diseased cell line, and measure the effect of the evaluated treatment on each diseased cell line. The measurement can be based on an amount of drug needed to obtain a threshold inhibition effect of the disease in the cell line (e.g., the amount of drug needed to reduce the activities of the disease by half).
(§2) FIG. 2 illustrates a graph 200 showing a graphical representation of an example set of treatment effectiveness data 136 that represents how effective NANT3456 is on a set of cell lines. NANT3456 is described in more detail in WO/2014/071378, published May 8, 2014, which is incorporated by reference herein. In some embodiments, the data points on FIG. 2 represent distinct cell lines from different tissues, distinct cell lines from the same tissue, or any combination thereof. Further, the cell lines may be derived from a single host, multiple distinct hosts, or any combination. In this example, NANT3456 is known to be capable of treating diseases associated with the set of cell lines (e.g., cell lines MV411, TT, AN3CA, K562, PC3, HCT116, ASPC1, MDAMB231, TF1, NCIH23, MIAPACA2, HS766T, CAPAN2, A549, HT29, U937, BXPC3, CAPAN1, and SU8686). […]

The subject of another assay is cell line MV411. As to the kind of experiment: Treatment effectiveness (GI50) on cell line MV411. As to conditions: Homo sapiens, MV4-11; data point 225, FIG. 2; read-out: sensitivity class from GI50 treatment effectiveness value.
Excerpt: as §1, §2

For a further assay, the system named is cell line TT. As to the kind of experiment: Treatment effectiveness (GI50) on cell line TT. As to conditions: data point 230, FIG. 2; read-out: sensitivity class from GI50 treatment effectiveness value.
Excerpt: as §1, §2

For the next assay, the system named is cell line PC3. The assay can be described thus: Treatment effectiveness (GI50) on cell line PC3. The following applies: data point 235, FIG. 2; read-out: sensitivity class from GI50 treatment effectiveness value.
Excerpt: as §1, §2

The next assay deals with NCIH23. As to the kind of experiment: Treatment effectiveness (GI50) on cell line NCIH23. The following applies: Homo sapiens, NCI-H23; data point 240, FIG. 2; read-out: sensitivity class from GI50 treatment effectiveness value.
Excerpt: as §1, §2

A further assay relates to cell line HT29. As to the kind of experiment: Treatment effectiveness (GI50) on cell line HT29. The following applies: Homo sapiens, HT-29; data point 245, FIG. 2; read-out: sensitivity class from GI50 treatment effectiveness value.
Excerpt: as §1, §2

Another assay has as its system cell line CAPAN1. As to the kind of experiment: Treatment effectiveness (GI50) on cell line CAPAN1. The following applies: Homo sapiens, CAPAN-1; data point 250, FIG. 2; read-out: sensitivity class from GI50 treatment effectiveness value.
Excerpt: as §1, §2

As a reminder, the GI50 is the concentration at which growth is held to half of that of the control.

Turning to `C/C=C/c1cc(Nc2cc(N3CCN(C)CC3)nc(Oc3cc(F)c4[nH]c(C)cc4c3F)n2)n[nH]1` [NANT3456], in assay [1], the “threshold effectiveness value (median value of all treatment effectiveness values, GI50)” value is recorded as 1.7 log10 units of nanomolar drug. Further, the GI50 in the assay with cell line MV411 was less than 50.1 nM; in the assay on cell line TT, less than 50.1 nM; in the assay with cell line PC3 it was less than 50.1 nM; with NCIH23, more than 50.1 nM; in the assay with cell line CAPAN1 it was more than 50.1 nM. For the same compound, the GI50 sensitivity class in the assay on cell line HT29 was more than 50.1 nM.
